Measurements from US20260184710A1, “CASITAS B-LINEAGE LYMPHOMA PROTOONCOGENE B (CBL-B) DEGRADING COMPOUNDS AND ASSOCIATED METHODS OF USE” (Arvinas Operations, Inc., priority 2022, published 2026).

Target: T1, Cbl-b (Homo sapiens, UniProt Q13191)
T1 construct: Cbl-b-HiBit KI Jurkat Cells were purchased from Promega; host or cells: Cbl-b-HiBiT knock-in Jurkat cells
Assay: Cbl-b Degradation Method B (Nano-Glo HiBiT lytic detection)
Assay type: cell-based
Conditions: Cbl-b-HiBit KI Jurkat Cells, incubated at least 6-24 hours; for DC50: half maximal degradation, read-out: Cbl-b Degredation Method B IC50; for Dmax: maximum degradation observed, read-out: Cbl-b Degredation Method B Dmax (%)
Method in brief: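 Cbl-b-HiBiT knock-in Jurkat cells (20,000/well) were treated after ~24 h plating with an 11-point 1:3 series for 6-24 h at 37° C. Remaining Cbl-b measured by Nano-Glo HiBiT lytic luminescence. DC50 and Dmax expressed as % of control.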

T1 sequence (Q13191 whole entry): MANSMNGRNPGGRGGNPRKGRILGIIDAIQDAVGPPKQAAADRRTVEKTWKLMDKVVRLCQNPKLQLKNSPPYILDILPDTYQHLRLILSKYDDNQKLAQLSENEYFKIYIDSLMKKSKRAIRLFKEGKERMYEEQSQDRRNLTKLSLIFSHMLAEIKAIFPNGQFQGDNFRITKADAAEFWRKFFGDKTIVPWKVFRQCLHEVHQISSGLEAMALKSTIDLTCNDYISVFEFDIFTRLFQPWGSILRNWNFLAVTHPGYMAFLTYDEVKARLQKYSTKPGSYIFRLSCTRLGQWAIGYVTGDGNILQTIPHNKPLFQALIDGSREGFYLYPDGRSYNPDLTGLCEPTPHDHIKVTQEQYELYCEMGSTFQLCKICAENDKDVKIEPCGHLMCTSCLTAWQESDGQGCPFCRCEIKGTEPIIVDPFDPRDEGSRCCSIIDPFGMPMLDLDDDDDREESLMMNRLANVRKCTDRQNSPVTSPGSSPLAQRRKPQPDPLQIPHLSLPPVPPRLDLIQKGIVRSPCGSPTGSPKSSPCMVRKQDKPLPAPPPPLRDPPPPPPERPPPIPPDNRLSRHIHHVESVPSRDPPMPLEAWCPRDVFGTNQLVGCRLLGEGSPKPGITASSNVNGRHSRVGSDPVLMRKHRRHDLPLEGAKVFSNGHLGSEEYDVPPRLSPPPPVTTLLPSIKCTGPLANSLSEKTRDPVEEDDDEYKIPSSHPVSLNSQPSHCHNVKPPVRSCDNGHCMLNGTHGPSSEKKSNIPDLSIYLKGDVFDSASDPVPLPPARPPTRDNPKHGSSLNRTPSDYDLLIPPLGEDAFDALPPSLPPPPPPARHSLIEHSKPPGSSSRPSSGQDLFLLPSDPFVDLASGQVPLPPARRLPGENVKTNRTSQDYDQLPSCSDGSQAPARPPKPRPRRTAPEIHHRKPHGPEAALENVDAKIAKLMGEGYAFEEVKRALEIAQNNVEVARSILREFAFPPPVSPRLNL

SMILES	DC50 [nM]	Dmax [%]
CC(C)n1c(=O)n(C2CCC(=O)NC2=O)c2cccc(N3CCC(O[C@H]4CC[C@H](CN5CCN(Cc6cc7c(c(C(F)(F)F)c6)CN(c6cccc([C@]8(Cc9nncn9C)C[C@@H](C#N)C8)c6)C7=O)C(C)(C)C5)CC4)CC3)c21 (some centres unmarked) [Example 275, (1r,3r)-3-(3-{6-[(2,2-dimethyl-4-{[(1r,4r)-4-({1-[1-(2,6-dioxopiperidin-3-yl)-2-oxo-3-(propan-2-yl)-2,3-dihydro-1H-1,3-benzodiazol-4-yl]piperidin-4-yl}oxy)cyclohexyl]methyl}piperazin-1-yl)methyl]-1-oxo-4-(trifluoromethyl)-2,3-dihydro-1H-isoindol-2-yl}phenyl)-3-[(4-methyl-4H-1,2,4-triazol-3-yl)methyl]cyclobutane-1-carbonitrile]	5 to 50	35 to 70
COc1cc(N2CCN(Cc3cc4c(c(C(F)(F)F)c3)CN(c3cccc(C5(Cc6nncn6C)COC5)c3)C4=O)CC2)cc2c1C(=O)N(C1CCC(=O)NC1=O)C2=O (centres unmarked) [Example 52, 2-(2,6-dioxopiperidin-3-yl)-4-methoxy-6-(4-{[2-(3-{3-[(4-methyl-4H-1,2,4-triazol-3-yl)methyl]oxetan-3-yl}phenyl)-3-oxo-7-(trifluoromethyl)-2,3-dihydro-1H-isoindol-5-yl]methyl}piperazin-1-yl)-2,3-dihydro-1H-isoindole-1,3-dione]	> 500	
C[C@@H]1c2nc(N3CCC(O[C@H]4CC[C@H](CN5CCN(Cc6cc7c(c(C(F)(F)F)c6)CN(c6cccc(C8(Cc9nncn9C)CC(C#N)C8)c6)C7=O)C(C)(C)C5)CC4)CC3)ccc2C(=O)N1C1CCC(=O)NC1=O (single isomer, unassigned) [Example 308, (1r***,3r***)-3-(3-{6-[(2,2-dimethyl-4-{[(1r**,4r**)-4-({1-[(7R*)-6-(2,6-dioxopiperidin-3-yl)-7-methyl-5-oxo-5H,6H,7H-pyrrolo[3,4-b]pyridin-2-yl]piperidin-4-yl}oxy)cyclohexyl]methyl}piperazin-1-yl)methyl]-1-oxo-4-(trifluoromethyl)-2,3-dihydro-1H-isoindol-2-yl}phenyl)-3-[(4-methyl-4H-1,2,4-triazol-3-yl)methyl]cyclobutane-1-carbonitrile]	> 500	

Other lines, results leading:

DC50 [nM]	Dmax [%]	SMILES
< 5	35 to 70	Cn1cnnc1C[C@]1(c2cccc(N3Cc4c(cc(CN5CCN(C[C@H]6CC[C@H](OC7CCN(c8ccc9c(ccn9C9CCC(=O)NC9=O)c8)CC7)CC6)CC5)cc4C(F)(F)F)C3=O)c2)C[C@H](C#N)C1 (some centres unmarked) [Example 226, (1r,3r)-3-[(4-methyl-4H-1,2,4-triazol-3-yl)methyl]-3-(3-{1-oxo-6-[(4-{[(1r,4r)-4-({1-[1-(2,6-dioxopiperidin-3-yl)-1H-indol-5-yl]piperidin-4-yl}oxy)cyclohexyl]methyl}piperazin-1-yl)methyl]-4-(trifluoromethyl)-2,3-dihydro-1H-isoindol-2-yl}phenyl)cyclobutane-1-carbonitrile]
> 500		Cc1cc(N2CCC(CN3CCC4(CC3)CN(c3ccc5cn(-c6cccc(C7(Cc8nncn8C)COC7)c6)nc5c3)C4)CC2)c(F)c2c1C(=O)N(C1CCC(=O)NC1=O)C2 (centres unmarked) [Example 261, 3-{4-fluoro-7-methyl-5-[4-({2-[2-(3-{3-[(4-methyl-4H-1,2,4-triazol-3-yl)methyl]oxetan-3-yl}phenyl)-2H-indazol-6-yl]-2,7-diazaspiro[3.5]nonan-7-yl}methyl)piperidin-1-yl]-1-oxo-2,3-dihydro-1H-isoindol-2-yl}piperidine-2,6-dione]
> 500		Cn1cnnc1CC1(c2cccc(-n3cc4ccc(N5CC6(CCN(CC7CCN(c8ccc9c(c8Cl)CN(C8CCC(=O)NC8=O)C9=O)CC7)CC6)C5)cc4n3)c2)COC1 (centres unmarked) [Example 260, 3-{4-chloro-5-[4-({2-[2-(3-{3-[(4-methyl-4H-1,2,4-triazol-3-yl)methyl]oxetan-3-yl}phenyl)-2H-indazol-6-yl]-2,7-diazaspiro[3.5]nonan-7-yl}methyl)piperidin-1-yl]-1-oxo-2,3-dihydro-1H-isoindol-2-yl}piperidine-2,6-dione]
